In patent US20170008888A1 (KYORIN PHARMACEUTICAL CO., LTD., priority 2014, published 2017):

Columns and labels:
[1] = biological target: T1, BRD4 bromodomain domain I [BRD4(1)] (Homo sapiens, UniProt O60885); test: BRD4 bromodomain domain 1 inhibition assay (TR-FRET); type: binding; details: for inhibition at 10 µM: screening concentration 10 μM
T1 construct: BRD4 bromodomain domain I [BRD4(1)]; purchased Cayman Chemicals
How it was run: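 0.5% DMSO, in triplicate, using Cayman BRD4(1) TR-FRET protocol with slight modification. 670/620 nm ratio normalized to 10 μM JQ1, with DMSO control set as 0% inhibition.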

JAK1 = biological target: T2, JAK1 (Homo sapiens, UniProt P23458); test: Probe-based (AX9989) kinase profiling in Jurkat lysate: JAK1; type: binding; details: read-out: JAK1 Inhibition % at indicated screening concentration; for inhibition at 1 µM: screening concentration 1 μM; for inhibition at 10 µM: screening concentration 10 μM
T2 construct: screened for activity against several kinases in Jurkat cells; endogenous in cells; host or cells: Jurkat cell lysate
How it was run: (§1)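 Percent inhibition was derived from reduced LC/MS fragment intensities of probe-labeled peptides relative to compound-free controls. Before labeling with 5 μM AX9989, Mn2+-supplemented (20 mM) Jurkat lysate was exposed to compound for 15 min at room temperature.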

human PBMCs = test: Human PBMC TNF-α response to endotoxin (ELISA); type: cell-based; details: 0.1 μg/ml LPS 16 h, read-out: EC50 for the inhibition of the human PBMC TNF-α response to endotoxin, ave. ± S.D.
How it was run: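 PBMCs at 2e6 cells/ml in RPMI 1640 with 10% charcoal-dextran-treated FBS were pre-treated 1 h at 37 °C with compound (4-point 1:5 dilution from 10 μM). Stimulation with 0.1 μg/ml E. coli 0111:B4 LPS for 16 h; TNF-α measured by ELISA (A450) in 25-fold diluted supernatant.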

ABL or ARG = test: Probe-based (AX9989) kinase profiling in Jurkat lysate: ABL or ARG; type: binding
How it was run: as §1

ACK = biological target: T3, ACK (Homo sapiens, UniProt Q07912); test: Probe-based (AX9989) kinase profiling in Jurkat lysate: ACK; type: binding; details: read-out: ACK Inhibition % at indicated screening concentration; for inhibition at 1 µM: screening concentration 1 μM; for inhibition at 10 µM: screening concentration 10 μM
T3 construct: screened for activity against several kinases in Jurkat cells; endogenous in cells; host or cells: Jurkat cell lysate
How it was run: as §1

ERK5 = biological target: T4, ERK5 (Homo sapiens, UniProt Q13164); test: Probe-based (AX9989 acyl phosphate ATP probe) kinase profiling in Jurkat lysate: ERK5; type: binding; details: for IC50: calculated from percent inhibition and screening concentration, Jurkat lysate, AX9989 probe; for inhibition at 1 µM: screening concentration 1 μM; for inhibition at 1 µM / inhibition at 10 µM: read-out: ERK5 Inhibition % at indicated screening concentration; for inhibition at 10 µM: screening concentration 10 μM
T4 construct: screened for activity against several kinases in Jurkat cells; endogenous in cells; host or cells: Jurkat cell lysate
How it was run: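 ERK5 IC50 values came from percent inhibition at the screening concentration, measured as loss of LC/MS signal of probe-labelled active-site peptides. Compound was added for 15 min at room temperature to Jurkat lysate (5 mg/ml, 20 mM MnCl2) before labelling with AX9989 ATP acyl phosphate probe at 5 μM.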

[2] = biological target: T5, recombinant human ERK5 catalytic domain (Homo sapiens, UniProt Q13164); test: Recombinant human ERK5 radiometric (HotSpot) assay; type: biochemical; details: 10 μM ATP, 20 μM myelin basic protein substrate; read-out: rhERK5 IC50
T5 construct: Recombinant human ERK5 catalytic domain radiometric assays; purchased Reaction Biology, Corp (Malvern, Pa.), which ran the assay as a service
How it was run: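 Radiometric filter-binding HotSpot assay using [γ-33P]-ATP tracer with 10 μM cold ATP and 20 μM myelin basic protein substrate. Compounds tested in 10-point, ⅓-fold serial dilution from 20 μM; […].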

T3 sequence (Q07912 whole entry): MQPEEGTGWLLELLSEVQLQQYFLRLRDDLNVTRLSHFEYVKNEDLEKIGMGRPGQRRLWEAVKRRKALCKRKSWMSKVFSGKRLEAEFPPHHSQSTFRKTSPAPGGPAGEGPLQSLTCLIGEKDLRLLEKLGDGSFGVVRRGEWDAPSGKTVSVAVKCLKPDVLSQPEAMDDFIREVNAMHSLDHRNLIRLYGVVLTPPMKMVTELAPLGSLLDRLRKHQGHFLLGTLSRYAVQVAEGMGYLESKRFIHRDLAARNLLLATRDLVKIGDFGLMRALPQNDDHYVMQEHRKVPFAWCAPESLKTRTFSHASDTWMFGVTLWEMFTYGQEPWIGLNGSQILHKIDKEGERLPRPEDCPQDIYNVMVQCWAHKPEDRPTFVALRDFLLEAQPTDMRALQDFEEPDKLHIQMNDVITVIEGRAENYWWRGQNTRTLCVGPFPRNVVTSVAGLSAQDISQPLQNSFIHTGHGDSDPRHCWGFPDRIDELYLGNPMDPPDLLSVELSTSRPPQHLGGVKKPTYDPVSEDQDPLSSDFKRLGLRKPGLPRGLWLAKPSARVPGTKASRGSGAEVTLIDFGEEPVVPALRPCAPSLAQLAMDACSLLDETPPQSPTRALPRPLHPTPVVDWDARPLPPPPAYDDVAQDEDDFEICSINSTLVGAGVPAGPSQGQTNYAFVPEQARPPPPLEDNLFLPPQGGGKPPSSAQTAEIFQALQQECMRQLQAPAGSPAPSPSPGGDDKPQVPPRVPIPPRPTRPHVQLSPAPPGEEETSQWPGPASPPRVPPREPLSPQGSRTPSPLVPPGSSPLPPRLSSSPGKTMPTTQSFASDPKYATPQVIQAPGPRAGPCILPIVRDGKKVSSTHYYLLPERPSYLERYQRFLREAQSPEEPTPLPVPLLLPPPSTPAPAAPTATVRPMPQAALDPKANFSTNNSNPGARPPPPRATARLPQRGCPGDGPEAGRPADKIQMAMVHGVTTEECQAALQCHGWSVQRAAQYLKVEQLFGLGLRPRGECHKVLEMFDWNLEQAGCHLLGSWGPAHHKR
T5 sequence (Q13164 55-347 limits assumed): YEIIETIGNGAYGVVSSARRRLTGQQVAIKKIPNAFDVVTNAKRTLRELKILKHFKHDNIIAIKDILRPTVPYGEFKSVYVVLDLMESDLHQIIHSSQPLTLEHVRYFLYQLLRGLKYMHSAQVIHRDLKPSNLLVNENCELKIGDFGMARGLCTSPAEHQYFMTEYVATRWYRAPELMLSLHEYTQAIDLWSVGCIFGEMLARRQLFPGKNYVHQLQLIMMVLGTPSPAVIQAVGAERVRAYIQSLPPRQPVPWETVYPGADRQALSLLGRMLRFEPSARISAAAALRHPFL
T2 sequence (P23458 whole entry): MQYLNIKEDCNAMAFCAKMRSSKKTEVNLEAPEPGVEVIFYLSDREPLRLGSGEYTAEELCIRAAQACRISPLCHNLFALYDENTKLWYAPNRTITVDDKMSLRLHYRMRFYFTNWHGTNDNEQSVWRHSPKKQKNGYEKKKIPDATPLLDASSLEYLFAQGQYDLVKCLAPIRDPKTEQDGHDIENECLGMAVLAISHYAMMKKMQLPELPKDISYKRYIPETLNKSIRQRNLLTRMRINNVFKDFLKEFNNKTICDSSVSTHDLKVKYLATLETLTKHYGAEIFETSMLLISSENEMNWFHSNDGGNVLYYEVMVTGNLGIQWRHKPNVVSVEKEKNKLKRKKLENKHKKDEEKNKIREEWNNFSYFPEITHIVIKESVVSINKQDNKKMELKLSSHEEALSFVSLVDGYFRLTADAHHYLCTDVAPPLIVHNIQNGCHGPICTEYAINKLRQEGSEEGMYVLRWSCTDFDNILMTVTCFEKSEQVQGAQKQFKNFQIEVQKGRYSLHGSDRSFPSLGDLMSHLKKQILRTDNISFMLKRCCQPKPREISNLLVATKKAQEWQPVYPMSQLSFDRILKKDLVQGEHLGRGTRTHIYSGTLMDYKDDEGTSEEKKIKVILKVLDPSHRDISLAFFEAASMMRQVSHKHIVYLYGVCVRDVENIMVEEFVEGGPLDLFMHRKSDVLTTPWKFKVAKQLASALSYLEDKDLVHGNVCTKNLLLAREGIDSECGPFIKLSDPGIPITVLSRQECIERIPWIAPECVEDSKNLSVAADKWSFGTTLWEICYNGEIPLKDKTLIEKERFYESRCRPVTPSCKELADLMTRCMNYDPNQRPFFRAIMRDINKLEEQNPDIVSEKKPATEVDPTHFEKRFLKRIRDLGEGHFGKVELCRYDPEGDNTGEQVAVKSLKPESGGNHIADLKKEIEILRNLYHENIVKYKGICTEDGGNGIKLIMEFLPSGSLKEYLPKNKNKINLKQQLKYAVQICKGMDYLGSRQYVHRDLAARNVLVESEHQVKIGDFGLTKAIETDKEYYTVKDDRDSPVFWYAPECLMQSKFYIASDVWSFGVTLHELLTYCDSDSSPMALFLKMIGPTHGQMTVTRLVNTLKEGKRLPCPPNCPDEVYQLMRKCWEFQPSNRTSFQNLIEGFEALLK
T4 sequence (Q13164 whole entry): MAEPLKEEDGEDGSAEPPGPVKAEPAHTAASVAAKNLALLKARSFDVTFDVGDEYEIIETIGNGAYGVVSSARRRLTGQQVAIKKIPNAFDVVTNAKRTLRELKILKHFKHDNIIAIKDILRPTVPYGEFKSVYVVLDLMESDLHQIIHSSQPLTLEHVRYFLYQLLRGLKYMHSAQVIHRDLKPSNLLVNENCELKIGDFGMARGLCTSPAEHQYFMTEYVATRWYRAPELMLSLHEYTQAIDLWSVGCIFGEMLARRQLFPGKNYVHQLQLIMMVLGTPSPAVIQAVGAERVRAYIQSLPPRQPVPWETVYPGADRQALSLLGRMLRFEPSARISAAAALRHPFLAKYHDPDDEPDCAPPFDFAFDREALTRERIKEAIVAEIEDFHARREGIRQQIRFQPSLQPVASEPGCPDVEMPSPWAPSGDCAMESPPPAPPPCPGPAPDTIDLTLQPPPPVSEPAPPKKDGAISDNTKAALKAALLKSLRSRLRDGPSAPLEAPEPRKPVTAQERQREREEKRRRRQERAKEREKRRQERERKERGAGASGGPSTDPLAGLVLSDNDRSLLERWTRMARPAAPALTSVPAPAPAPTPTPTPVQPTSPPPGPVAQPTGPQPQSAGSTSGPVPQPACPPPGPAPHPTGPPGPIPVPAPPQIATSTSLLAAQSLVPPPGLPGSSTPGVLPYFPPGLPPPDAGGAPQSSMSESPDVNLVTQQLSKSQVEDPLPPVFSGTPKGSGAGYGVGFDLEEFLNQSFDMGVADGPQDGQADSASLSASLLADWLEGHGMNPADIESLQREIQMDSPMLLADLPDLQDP

| Compound | inhibition at 10 µM [1] | inhibition at 1 µM (JAK1) | EC50 (human PBMCs) | ABL or ARG Inhibition % at indicated screening concentration (ABL or ARG; screening concentration 1 μM) | inhibition at 1 µM (ACK) | IC50 (ERK5) | inhibition at 1 µM (ERK5) | IC50 [2] | IC50 [1] | inhibition at 10 µM (JAK1) | ABL or ARG Inhibition % at indicated screening concentration (ABL or ARG; screening concentration 10 μM) | inhibition at 10 µM (ACK) | inhibition at 10 µM (ERK5) | inhibition at 5 µM ([1]; Screening concentration 5 μM) |
| --- | --- | --- | --- | --- | --- | --- | --- | --- | --- | --- | --- | --- | --- | --- |
| CCOc1cc(C(=O)N2CC[C@@H](NCCF)C2)ccc1Nc1cc2c(cn1)N(C)C(=O)c1ccccc1N2C [Compound T9] | 70 to 85% | ≤ 35% | 590 nM | E (E is ≦35%) | ≤ 35% | ≤ 50 nM | > 90% | 20 to 50 nM |  |  |  |  |  |  |
| CCOc1cc(C(=O)N2CCN(C3CCN(C)CC3)CC2)ccc1Nc1cc2c(cn1)N(C)C(=O)c1c(F)cccc1O2 [Compound T102] |  |  | 290 ± 280 nM |  |  | 101 to 500 nM |  | 20 to 50 nM | < 2000 nM | ≤ 35% | E (E is ≦35%) | ≤ 35% | > 90% |  |
| CC(C)Oc1cc(C(=O)N2CCN(C3CCN(C)CC3)CC2)ccc1Nc1cc2c(cn1)N(C)C(=O)c1ccccc1N2C [Compound T49] | > 85% | ≤ 35% | 300 ± 120 nM | E (E is ≦35%) | ≤ 35% | 50 to 100 nM | > 90% | 50 to 200 nM |  |  |  |  |  |  |
| CCOc1cc(C(=O)N2CC[C@H](C#N)C2)ccc1Nc1cc2c(cn1)N(C)C(=O)c1ccccc1N2C [Compound T22] | < 70% | ≤ 35% | 820 ± 140 nM | E (E is ≦35%) | ≤ 35% | ≤ 50 nM | > 90% | 50 to 200 nM |  |  |  |  |  |  |
| CCOc1cc(C(=O)N2CCC(N3CC[C@H](O)C3)CC2)ccc1Nc1cc2c(cn1)N(C)C(=O)c1ccccc1N2C [Compound T11] | > 85% | ≤ 35% | 620 nM | E (E is ≦35%) | ≤ 35% | ≤ 50 nM | > 90% | 20 to 50 nM |  |  |  |  |  |  |
| CCOc1cc(C(=O)N2CCN(CCN(C)C)CC2)ccc1Nc1cc2c(cn1)N(C)C(=O)c1ccccc1N2C [Compound T14] | > 85% | ≤ 35% | 720 ± 50 nM | E (E is ≦35%) | ≤ 35% | ≤ 50 nM | > 90% | 20 to 50 nM |  |  |  |  |  |  |
| CCOc1cc(C(=O)N2CCN(C3CCN(C)CC3)CC2)ccc1Nc1cc2c(cn1)N(C)C(=O)c1ccccc1N2C [Compound T8] | > 85% | ≤ 35% | 410 ± 120 nM | E (E is ≦35%) | ≤ 35% | ≤ 50 nM | > 90% | < 20 nM |  |  |  |  |  |  |
| CCOc1cc(C(=O)N2CCN(CCN3CCOCC3)CC2)ccc1Nc1cc2c(cn1)N(C)C(=O)c1ccccc1N2C [Compound T15] | > 85% | ≤ 35% | 800 ± 270 nM | E (E is ≦35%) | ≤ 35% | ≤ 50 nM | > 90% | 20 to 50 nM |  |  |  |  |  |  |
| CCOc1cc(C(=O)N2CCN(C3CCN(C)CC3)CC2)ccc1Nc1cc2c(cn1)N(C)C(=O)c1ccccc1O2 [Compound T98] |  |  | 810 ± 920 nM |  |  | 101 to 500 nM |  | 20 to 50 nM | 2000 to 5000 nM | ≤ 35% | E (E is ≦35%) | ≤ 35% | > 90% |  |
| CC(C)Oc1cc(C(=O)N2CC[C@@H](NCCF)C2)ccc1Nc1cc2c(cn1)N(C)C(=O)c1ccccc1N2C [Compound T50] | > 85% | ≤ 35% | 630 nM | E (E is ≦35%) | ≤ 35% | 101 to 500 nM | 75 to 90% | 50 to 200 nM |  |  |  |  |  |  |
| COc1cccc2c1Oc1cc(N[C@H]3CC[C@H](O)CC3)ncc1N(C)C2=O [Compound T95] |  |  | 1380 ± 1710 nM |  |  | > 500 nM |  | > 200 nM | 2000 to 5000 nM | ≤ 35% | E (E is ≦35%) | ≤ 35% | > 90% |  |
| C[C@@H]1C[C@H](Nc2cc3c(cn2)N(C)C(=O)c2ccccc2N3C)CC[C@H]1O [Compound T115] |  |  | 780 ± 690 nM |  |  | 101 to 500 nM |  | > 200 nM | 2000 to 5000 nM | ≤ 35% | E (E is ≦35%) | ≤ 35% | > 90% |  |
| CCOc1cc(C(=O)N2CCN(c3cccnc3)CC2)ccc1Nc1cc2c(cn1)N(C)C(=O)c1occc1N2C [Compound T56] | 70 to 85% | ≤ 35% | 300 nM | E (E is ≦35%) | ≤ 35% | ≤ 50 nM | > 90% | < 20 nM |  |  |  |  |  |  |
| CCOc1cc(C(=O)N2CC[C@@H](N3CCN(C)CC3)C2)ccc1Nc1cc2c(cn1)N(C)C(=O)c1ccccc1N2C [Compound T20] |  | ≤ 35% | 460 ± 140 nM | E (E is ≦35%) | ≤ 35% | ≤ 50 nM | > 90% | 20 to 50 nM |  |  |  |  |  | > 85% |
| CN1CCN(C2CCN(C(=O)c3ccc(Nc4cc5c(cn4)N(C)C(=O)c4ccccc4N5C)c(OCCF)c3)CC2)CC1 [Compound T34] | 70 to 85% | ≤ 35% | 490 ± 40 nM | E (E is ≦35%) | ≤ 35% | ≤ 50 nM | > 90% | < 20 nM |  |  |  |  |  |  |
| CCOc1cc(C(=O)N2CCN(C(C)=O)CC2)ccc1Nc1cc2c(cn1)N(C)C(=O)c1ccccc1N2C [Compound T18] | 70 to 85% | ≤ 35% | 820 ± 100 nM | E (E is ≦35%) | ≤ 35% | ≤ 50 nM | > 90% | 20 to 50 nM |  |  |  |  |  |  |
| CCOc1cc(C(=O)N2CCC(N3CC[C@@H](O)C3)CC2)ccc1Nc1cc2c(cn1)N(C)C(=O)c1ccccc1N2C [Compound T10] | > 85% | ≤ 35% | 650 nM | E (E is ≦35%) | ≤ 35% | ≤ 50 nM | > 90% | 20 to 50 nM |  |  |  |  |  |  |
| CCOc1cc(C(=O)N2CCC(N3CCCN(C)CC3)CC2)ccc1Nc1cc2c(cn1)N(C)C(=O)c1ccccc1N2C [Compound T31] | > 85% | ≤ 35% | 490 nM | E (E is ≦35%) | ≤ 35% | ≤ 50 nM | > 90% | < 20 nM |  |  |  |  |  |  |
| CN1C(=O)c2c(F)cccc2Oc2cc(N[C@H]3CC[C@H](O)CC3)ncc21 [Compound T92] |  |  | 440 ± 290 nM |  |  | 101 to 500 nM |  | 50 to 200 nM | < 2000 nM | ≤ 35% | E (E is ≦35%) | ≤ 35% | > 90% |  |
